According to ChEMBL document CHEMBL3044945, “Synthesis of 1,3,5-trisubstituted pyrazoline nucleus containing compounds and screening for antimicrobial activity” (2012):
Values after ≈ are worked out from the molar mass of the structure shown.

Tests used:
Assay type in all cases: functional
[1] = system: Bacillus subtilis; test: Antibacterial activity against Bacillus subtilis MTCC 441 at 1250 ug/ml after 48 hr by cup-plate method; conditions: MTCC 441, 48 h, read-out: DIZ
[2] = system: Bacillus subtilis; test: Antibacterial activity against Bacillus subtilis MTCC 441 at 1000 ug/ml after 48 hr by cup-plate method; conditions: MTCC 441, 48 h, read-out: DIZ
[3] = system: Bacillus subtilis; test: Antibacterial activity against Bacillus subtilis MTCC 441 at 750 ug/ml after 48 hr by cup-plate method; conditions: MTCC 441, 48 h, read-out: DIZ
[4] = system: Bacillus subtilis; test: Antibacterial activity against Bacillus subtilis MTCC 441 at 500 ug/ml after 48 hr by cup-plate method; conditions: MTCC 441, 48 h, read-out: DIZ
[5] = system: Bacillus subtilis; test: Antibacterial activity against Bacillus subtilis MTCC 441 at 250 ug/ml after 48 hr by cup-plate method; conditions: MTCC 441, 48 h, read-out: DIZ
[6] = system: Bacillus subtilis; test: Antibacterial activity against Bacillus subtilis MTCC 441 at 100 ug/ml after 48 hr by cup-plate method; conditions: MTCC 441, 48 h, read-out: DIZ
[7] = system: Micrococcus luteus; test: Antibacterial activity against Micrococcus luteus MTCC 1538 after 24 to 48 hr by tube dilution method
[8] = system: Escherichia coli; test: Antibacterial activity against Escherichia coli MTCC 1573 after 24 to 48 hr by tube dilution method
[9] = system: Penicillium chrysogenum; test: Antifungal activity against Penicillium chrysogenum MTCC 161 after 24 to 48 hr by tube dilution method
[10] = system: Aspergillus niger; test: Antifungal activity against Aspergillus niger MTCC 2546 after 24 to 48 hr by tube dilution method
[11] = system: Pseudomonas fluorescens; test: Antibacterial activity against Pseudomonas fluorescens MTCC 2421 after 24 to 48 hr by tube dilution method
[12] = system: Bacillus pumilus; test: Antibacterial activity against Bacillus pumilus MTCC 1456 after 24 to 48 hr by tube dilution method
[13] = system: Pseudomonas aeruginosa; test: Antibacterial activity against Pseudomonas aeruginosa MTCC 424 after 24 to 48 hr by tube dilution method
[14] = system: Staphylococcus aureus; test: Antibacterial activity against Staphylococcus aureus MTCC 1430 after 24 to 48 hr by tube dilution method
[15] = system: Bacillus subtilis; test: Antibacterial activity against Bacillus subtilis MTCC 441 after 24 to 48 hr by tube dilution method
[16] = system: Penicillium chrysogenum; test: Antifungal activity against Penicillium chrysogenum MTCC 161 at 1250 ug/ml after 48 hr by cup-plate method; conditions: MTCC 161, 48 h, read-out: DIZ
[17] = system: Penicillium chrysogenum; test: Antifungal activity against Penicillium chrysogenum MTCC 161 at 1000 ug/ml after 48 hr by cup-plate method; conditions: MTCC 161, 48 h, read-out: DIZ
[18] = system: Penicillium chrysogenum; test: Antifungal activity against Penicillium chrysogenum MTCC 161 at 750 ug/ml after 48 hr by cup-plate method; conditions: MTCC 161, 48 h, read-out: DIZ
[19] = system: Penicillium chrysogenum; test: Antifungal activity against Penicillium chrysogenum MTCC 161 at 500 ug/ml after 48 hr by cup-plate method; conditions: MTCC 161, 48 h, read-out: DIZ
[20] = system: Penicillium chrysogenum; test: Antifungal activity against Penicillium chrysogenum MTCC 161 at 250 ug/ml after 48 hr by cup-plate method; conditions: MTCC 161, 48 h, read-out: DIZ
[21] = system: Penicillium chrysogenum; test: Antifungal activity against Penicillium chrysogenum MTCC 161 at 100 ug/ml after 48 hr by cup-plate method; conditions: MTCC 161, 48 h, read-out: DIZ
[22] = system: Aspergillus niger; test: Antifungal activity against Aspergillus niger MTCC 2546 at 1250 ug/ml after 48 hr by cup-plate method; conditions: MTCC 2546, 48 h, read-out: DIZ
[23] = system: Aspergillus niger; test: Antifungal activity against Aspergillus niger MTCC 2546 at 1000 ug/ml after 48 hr by cup-plate method; conditions: MTCC 2546, 48 h, read-out: DIZ
[24] = system: Aspergillus niger; test: Antifungal activity against Aspergillus niger MTCC 2546 at 500 ug/ml after 48 hr by cup-plate method; conditions: MTCC 2546, 48 h, read-out: DIZ
[25] = system: Aspergillus niger; test: Antifungal activity against Aspergillus niger MTCC 2546 at 250 ug/ml after 48 hr by cup-plate method; conditions: MTCC 2546, 48 h, read-out: DIZ
[26] = system: Aspergillus niger; test: Antifungal activity against Aspergillus niger MTCC 2546 at 100 ug/ml after 48 hr by cup-plate method; conditions: MTCC 2546, 48 h, read-out: DIZ
[27] = system: Pseudomonas fluorescens; test: Antibacterial activity against Pseudomonas fluorescens MTCC 2421 at 1250 ug/ml after 48 hr by cup-plate method; conditions: MTCC 2421, 48 h, read-out: DIZ
[28] = system: Pseudomonas fluorescens; test: Antibacterial activity against Pseudomonas fluorescens MTCC 2421 at 1000 ug/ml after 48 hr by cup-plate method; conditions: MTCC 2421, 48 h, read-out: DIZ

## NC(=O)N1N=C(c2cccc3ccccc23)CC1c1ccc([N+](=O)[O-])cc1 (stereo not drawn)
[1]
  zone of inhibition at 1250 µg/mL: 16 mm
[2]
  zone of inhibition at 1000 µg/mL: 15 mm
[3]
  zone of inhibition at 750 µg/mL: 14 mm
[4]
  zone of inhibition at 500 µg/mL: 13 mm
[5]
  zone of inhibition at 250 µg/mL: 12 mm
[6]
  zone of inhibition at 100 µg/mL: 10 mm
[7]
  MIC: 30 µg/mL (≈ 83.2 µM)
[8]
  MIC: 50 µg/mL (≈ 139 µM)
[9]
  MIC: 50 µg/mL (≈ 139 µM)
[10]
  MIC: 50 µg/mL (≈ 139 µM)
[11]
  MIC: 200 µg/mL (≈ 555 µM)
[12]
  MIC: 50 µg/mL (≈ 139 µM)
[13]
  MIC: 200 µg/mL (≈ 555 µM)
[14]
  MIC: 50 µg/mL (≈ 139 µM)
[15]
  MIC: 15 µg/mL (≈ 41.6 µM)
[16]
  zone of inhibition at 1250 µg/mL: 13 mm
[17]
  zone of inhibition at 1000 µg/mL: 12 mm
[18]
  zone of inhibition at 750 µg/mL: 11 mm
[19]
  zone of inhibition at 500 µg/mL: 10 mm
[20]
  zone of inhibition at 250 µg/mL: 9 mm
[21]
  zone of inhibition at 100 µg/mL: 8 mm
[22]
  zone of inhibition at 1250 µg/mL: 19 mm
[23]
  zone of inhibition at 1000 µg/mL: 17 mm
[24]
  zone of inhibition at 500 µg/mL: 13 mm
[25]
  zone of inhibition at 250 µg/mL: 11 mm
[26]
  zone of inhibition at 100 µg/mL: 10 mm
[27]
  zone of inhibition at 1250 µg/mL: 14 mm
[28]
  zone of inhibition at 1000 µg/mL: 12 mm
